The record followed here is patent US20210315474A1, “DECOUPLED COIL ASSEMBLIES, MAGNETIC RESONANCE SYSTEMS AND METHODS OF USE” (FluoID Inc, priority 2018, published 2021).

The nature of this data set: 19F magnetic resonance imaging in vivo: tracking isoflurane in rat brain. The following applies: live Sprague-Dawley rat.

From the text: A MR system is utilized for this representative imaging experiment.
Here, indirect inverse irradiation focused on 19F is utilized to provide rapid and specific identification of the target molecule of interest while observing 1H, while circulating in a subject organism.
A live Sprague-Dawley rat was secured in the bed of the representative holding assembly of Example 1B. The RF coil elements were situated such that the area around its head was encircled to provide complete coverage for the brain of the animal, then the assembly placed in the MRI system of Example 1C. Localization of the spin species of interest, 19F, was accomplished with a spin-echo (or, alternatively, gradient-echo) sequence preceded with a magnetization transfer (MT) pulse allowing magnetization from 19F to 1H. The rat was subjected to increasing stepwise amounts of isoflurane, an inhaled general anesthetic with chemical structure CF3-CHCl—O—CHF2, over 30 minutes (see Table 2), then the flow was halted.
Anatomical MR images were obtained also using a standard spin-echo (or alternatively, gradient-echo) sequence. The MT pulse duration and strength were maintained constant prior to the signal acquisition by the surface coil.

Turning to `FC(F)OC(Cl)C(F)(F)F` (centres unmarked) [isoflurane], the “19F signal seen in the brain (level of the drug reaching the CNS in real time)” value (inhaled isoflurane increased stepwise 1%-3% over 30 minutes, MT pulse 19F to 1H, FIG. 17) is “increasing amount of 19F signal seen in the brain”. Further, the “concentration of isoflurane in the brain after cessation of anesthetic delivery” value (over the 30 minutes following cessation of anesthetic delivery (not shown)) is on record as “disappearance of the concentration of isoflurane in the brain could be observed”.
